Assays:
[1] = biological target: Serine/threonine-protein kinase B-raf (Homo sapiens, UniProt P15056, V600E)
Description: Inhibition of BRAF V600E mutant

[2] = Growth inhibition of human WM266.4 cells expressing BRAF mutant by SRB assay; assay type: functional, cell-based; settings: WM 266-4
[3] = Clearance in BALB/cAnNCrl mouse plasma at 2 mg/kg, iv; assay type: ADME, organism-based; parameters: dose 2 mg/kg, route intravenous
[4] = Cmax in BALB/cAnNCrl mouse muscle at 2 mg/kg, iv; assay type: ADME, organism-based, Muscle tissue; parameters: dose 2 mg/kg, route intravenous
[5] = Half life in BALB/cAnNCrl mouse muscle at 2 mg/kg, iv; assay type: ADME, organism-based, Muscle tissue; parameters: dose 2 mg/kg, route intravenous
[6] = Half life in BALB/cAnNCrl mouse plasma at 2 mg/kg, iv; assay type: ADME, organism-based; parameters: dose 2 mg/kg, route intravenous
[7] = AUC in BALB/cAnNCrl mouse plasma at 2 mg/kg, iv; assay type: ADME, organism-based; parameters: dose 2 mg/kg, route intravenous
[8] = Cmax in BALB/cAnNCrl mouse plasma at 2 mg/kg, iv; assay type: ADME, organism-based; parameters: dose 2 mg/kg, route intravenous
Muscle tissue = test: Clearance in BALB/cAnNCrl mouse muscle at 2 mg/kg, iv; assay type: ADME, organism-based; parameters: dose 2 mg/kg, route intravenous; settings: in vivo
[9] = AUC in BALB/cAnNCrl mouse muscle at 2 mg/kg, iv; assay type: ADME, organism-based, Muscle tissue; parameters: dose 2 mg/kg, route intravenous
[10] = Metabolic stability in mouse liver microsomes assessed as drug metabolism at 10 uM; assay type: ADME, Microsome; settings: read-out: Activity
[11] = Clearance in plasma of BRAF mutant expressing WM266.4 cells xenografted Crl:CD1-Foxn1nu mouse at 2 mg/kg, iv; assay type: ADME, organism-based; parameters: dose 2 mg/kg, route intravenous
[12] = Cmax in plasma of BRAF mutant expressing WM266.4 cells xenografted Crl:CD1-Foxn1nu mouse at 2 mg/kg, iv; assay type: ADME, organism-based; parameters: dose 2 mg/kg, route intravenous
[13] = AUC in tumor of BRAF mutant expressing WM266.4 cells xenografted Crl:CD1-Foxn1nu mouse at 2 mg/kg, iv; assay type: ADME, organism-based, Neoplasm; parameters: dose 2 mg/kg, route intravenous
[14] = Cmax in tumor of BRAF mutant expressing WM266.4 cells xenografted Crl:CD1-Foxn1nu mouse at 2 mg/kg, iv; assay type: ADME, organism-based, Neoplasm; parameters: dose 2 mg/kg, route intravenous; settings: read-out: Cmax_tumor
[15] = AUC in plasma of BRAF mutant expressing WM266.4 cells xenografted Crl:CD1-Foxn1nu mouse at 2 mg/kg, iv; assay type: ADME, organism-based; parameters: dose 2 mg/kg, route intravenous
[16] = Half life in tumor of BRAF mutant expressing WM266.4 cells xenografted Crl:CD1-Foxn1nu mouse at 2 mg/kg, iv; assay type: ADME, organism-based, Neoplasm; parameters: dose 2 mg/kg, route intravenous
[17] = Half life in plasma of BRAF mutant expressing WM266.4 cells xenografted Crl:CD1-Foxn1nu mouse at 2 mg/kg, iv; assay type: ADME, organism-based; parameters: dose 2 mg/kg, route intravenous
[18] = Clearance in tumor of BRAF mutant expressing WM266.4 cells xenografted Crl:CD1-Foxn1nu mouse at 2 mg/kg, iv; assay type: ADME, organism-based, Neoplasm; parameters: dose 2 mg/kg, route intravenous; settings: in vivo

Serine/threonine-protein kinase B-raf, sequence (P15056 2-766 V600E limits assumed): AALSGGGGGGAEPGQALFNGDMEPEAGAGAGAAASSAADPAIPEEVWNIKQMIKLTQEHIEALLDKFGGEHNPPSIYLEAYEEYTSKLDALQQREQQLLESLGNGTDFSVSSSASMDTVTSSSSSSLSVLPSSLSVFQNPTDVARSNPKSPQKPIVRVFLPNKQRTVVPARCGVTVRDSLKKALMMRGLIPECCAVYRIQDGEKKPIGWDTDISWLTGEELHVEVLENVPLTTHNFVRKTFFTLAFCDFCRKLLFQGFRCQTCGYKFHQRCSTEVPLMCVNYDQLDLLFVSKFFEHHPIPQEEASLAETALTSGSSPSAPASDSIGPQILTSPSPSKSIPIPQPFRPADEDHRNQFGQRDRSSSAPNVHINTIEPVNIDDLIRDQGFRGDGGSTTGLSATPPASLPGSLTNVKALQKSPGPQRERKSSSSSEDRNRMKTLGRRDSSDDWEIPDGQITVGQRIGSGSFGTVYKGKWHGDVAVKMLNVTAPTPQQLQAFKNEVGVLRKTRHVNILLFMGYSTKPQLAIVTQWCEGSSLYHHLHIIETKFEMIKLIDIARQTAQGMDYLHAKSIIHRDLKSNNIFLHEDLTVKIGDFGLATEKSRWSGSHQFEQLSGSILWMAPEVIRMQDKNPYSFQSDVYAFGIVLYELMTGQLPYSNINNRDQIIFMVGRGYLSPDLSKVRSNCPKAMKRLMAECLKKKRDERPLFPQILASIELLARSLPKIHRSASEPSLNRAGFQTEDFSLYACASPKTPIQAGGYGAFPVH

Compound: Cn1c(=O)[nH]c2c(Oc3ccc(NC(=O)Nc4cccc(C(C)(C)C)c4)cc3)ccnc21
- IC50 [1]: 0.06 µM
- IC50 [2]: 7 µM

Compound: O=c1[nH]c2nccc(Oc3ccc(NS(=O)(=O)c4ccc(Cl)c(C(F)(F)F)c4)cc3)c2[nH]1
- IC50 [1]: > 100 µM
- IC50 [2]: 40.3 µM

Compound: O=C(Nc1ccc(Oc2ccnc3[nH]c(=O)[nH]c23)cc1)c1cccc(C(F)(F)F)c1
- IC50 [1]: 17.2 µM
- IC50 [2]: 22 µM

Compound: CNC(=O)c1cc(Oc2ccc(NC(=O)Nc3ccc(Cl)c(C(F)(F)F)c3)cc2)ccn1 [SORAFENIB]
- IC50 [2]: 5 µM

Compound: Cn1c(=O)[nH]c2c(Oc3ccc(NC(=O)Nc4ccc(Cl)c(C(F)(F)F)c4)cc3)ccnc21
- clearance [3]: 0.833 mL/min
- Cmax [4]: 8080 nM
- IC50 [1]: 0.045 µM
- half-life [5]: 4.35 h
- half-life [6]: 4.72 h
- AUC [7]: 16.4 µM·h
- Cmax [8]: 3230 nM
- IC50 [2]: 3.7 µM
- CL (Muscle tissue): 0.009 L/h
- AUC [9]: 9.46 µM·h

Compound: O=C(Nc1ccc(Oc2ccnc3[nH]c(=O)[nH]c23)cc1)Nc1ccc(C(F)(F)F)cc1
- IC50 [1]: > 100 µM
- IC50 [2]: > 100 µM

Compound: O=C(Nc1ccccc1)Nc1ccc(Oc2ccnc3[nH]c(=O)[nH]c23)cc1
- IC50 [1]: > 100 µM
- IC50 [2]: > 100 µM

Compound: O=c1[nH]c2nccc(Oc3ccc(NS(=O)(=O)c4ccc(Cl)cc4)cc3)c2[nH]1
- IC50 [1]: > 100 µM
- IC50 [2]: 39 µM

Compound: O=C(Cc1ccccc1)Nc1ccc(Oc2ccnc3[nH]c(=O)[nH]c23)cc1
- IC50 [1]: 16.7 µM
- IC50 [2]: 73 µM

Compound: CCn1c(=O)n(CC)c2c(Oc3ccc(NC(=O)Nc4ccc(Cl)c(C(F)(F)F)c4)cc3)ccnc21
- IC50 [1]: 0.305 µM
- IC50 [2]: 22 µM

Compound: O=c1[nH]c2nccc(Oc3ccc(NS(=O)(=O)c4ccccc4)cc3)c2[nH]1
- IC50 [1]: 0.85 µM
- IC50 [2]: 62.7 µM
- metabolised at 10 µM [10]: 5%

Compound: O=C(Nc1ccc(Sc2ccnc3[nH]c(=O)[nH]c23)cc1)Nc1cccc(C(F)(F)F)c1
- IC50 [1]: 0.028 µM
- IC50 [2]: 1.42 µM

Compound: COc1cc(Cl)c(C(F)(F)F)cc1NC(=O)Nc1ccc(Oc2ccnc3[nH]c(=O)[nH]c23)cc1
- IC50 [1]: 0.027 µM
- IC50 [2]: 1.6 µM
- metabolised at 10 µM [10]: 8%

Compound: COc1cccc(CC(=O)Nc2ccc(Oc3ccnc4[nH]c(=O)[nH]c34)cc2)c1
- IC50 [2]: 40 µM

Compound: O=C(Nc1ccc(Oc2ccnc3[nH]c(=O)[nH]c23)cc1)Nc1ccc(Cl)c(C(F)(F)F)c1
- clearance [11]: 1.95 mL/min
- Cmax [12]: 1060 nM
- IC50 [1]: 0.023 µM
- AUC [13]: 0.468 µM·h
- Cmax [14]: 207 nM
- AUC [15]: 0.718 µM·h
- half-life [16]: 1.24 h
- IC50 [2]: 4.2 µM
- half-life [17]: 0.8 h
- CL [18]: 0.16 L/h
- metabolised at 10 µM [10]: 0%

Compound: O=C(Nc1ccc(Oc2ccnc3[nH]c(=O)[nH]c23)cc1)Nc1cc(C(F)(F)F)ccc1F
- IC50 [1]: 0.052 µM
- IC50 [2]: 3.3 µM

Compound: O=C(Nc1ccc(Oc2ccnc3[nH]c(=O)[nH]c23)cc1)c1ccc(Cl)c(C(F)(F)F)c1
- IC50 [1]: 15.9 µM
- IC50 [2]: 8.1 µM

Compound: O=c1[nH]c2nccc(Oc3ccc(NS(=O)(=O)c4cccs4)cc3)c2[nH]1
- IC50 [1]: 12.2 µM
- IC50 [2]: 15.6 µM

Compound: O=C(Nc1ccc(Oc2ccnc3[nH]c(=O)[nH]c23)cc1)c1cccc(Br)c1
- IC50 [1]: 14 µM
- IC50 [2]: 18 µM

Compound: O=C(Nc1ccc(Oc2ccnc3[nH]c(=O)[nH]c23)cc1)c1ccccc1
- IC50 [1]: > 100 µM
- IC50 [2]: > 100 µM

Compound: O=c1[nH]c2nccc(Oc3ccc(NS(=O)(=O)c4ccc(C(F)(F)F)cc4)cc3)c2[nH]1
- IC50 [1]: > 100 µM
- IC50 [2]: 41 µM

Compound: COc1ccc(C(F)(F)F)cc1NC(=O)Nc1ccc(Oc2ccnc3[nH]c(=O)[nH]c23)cc1
- IC50 [1]: 0.012 µM
- IC50 [2]: 4.2 µM

Compound: O=C(Nc1ccc(Sc2ccnc3[nH]c(=O)[nH]c23)cc1)Nc1cc(C(F)(F)F)ccc1F
- IC50 [1]: 0.029 µM
- IC50 [2]: 1.28 µM

Compound: O=C(Nc1ccc(Oc2ccnc3[nH]c(=O)[nH]c23)cc1)Nc1cc(C(F)(F)F)ccc1N1CCOCC1
- IC50 [1]: 0.86 µM
- IC50 [2]: 5.2 µM

Compound: O=C(Nc1ccc(Oc2ccnc3[nH]c(=O)[nH]c23)cc1)c1cccc(OC(F)(F)F)c1
- IC50 [1]: > 100 µM
- IC50 [2]: > 100 µM

Compound: O=C(Nc1ccc(Cl)cc1)Nc1ccc(Oc2ccnc3[nH]c(=O)[nH]c23)cc1
- IC50 [1]: > 100 µM
- IC50 [2]: > 100 µM

Compound: O=C(Nc1ccc(Oc2ccnc3[nH]c(=O)[nH]c23)cc1)Nc1cccc(OC(F)(F)F)c1
- IC50 [1]: 0.021 µM
- IC50 [2]: > 100 µM

Compound: O=C(Nc1ccc(Sc2ccnc3[nH]c(=O)[nH]c23)cc1)Nc1ccc(Cl)c(C(F)(F)F)c1
- IC50 [1]: 0.04 µM
- IC50 [2]: 2.1 µM

Compound: O=c1[nH]c2nccc(Oc3ccc(NC(=S)Nc4ccc(Cl)c(C(F)(F)F)c4)cc3)c2[nH]1
- IC50 [1]: 0.085 µM
- IC50 [2]: 10.7 µM

Compound: O=C(Cc1cc(F)cc(F)c1)Nc1ccc(Oc2ccnc3[nH]c(=O)[nH]c23)cc1
- IC50 [1]: > 100 µM
- IC50 [2]: 29 µM

Compound: O=C(Nc1ccc(Oc2ccnc3[nH]c(=O)[nH]c23)cc1)Nc1cc(Cl)cc(C(F)(F)F)c1
- IC50 [1]: 0.1 µM
- IC50 [2]: 12.8 µM

Compound: O=c1[nH]c2nccc(Oc3ccc(NS(=O)(=O)c4ccccc4F)cc3)c2[nH]1
- IC50 [1]: 32.5 µM
- IC50 [2]: 62 µM

Compound: O=C(Nc1ccc(Oc2ccnc3[nH]c(=O)[nH]c23)cc1)Nc1cccc(C(F)(F)F)c1
- IC50 [1]: 0.014 µM
- IC50 [2]: > 100 µM

Compound: Cn1c(=O)[nH]c2c(Oc3ccc(NC(=O)Nc4cc(C(F)(F)F)ccc4F)cc3)ccnc21
- IC50 [1]: 0.046 µM
- IC50 [2]: 1.94 µM

Compound: O=C(Nc1ccc(Oc2ccnc3[nH]c(=O)[nH]c23)cc1)c1cc(F)cc(N2CCOCC2)c1
- IC50 [1]: > 100 µM
- IC50 [2]: 44 µM

Compound: O=c1[nH]c2nccc(Oc3ccc(NS(=O)(=O)c4ccc(F)cc4)cc3)c2[nH]1
- IC50 [1]: > 100 µM

Compound: O=C(Nc1ccc(Oc2ccnc3[nH]c(=O)[nH]c23)cc1)Nc1cc(F)cc(N2CCOCC2)c1
- IC50 [1]: 0.6 µM
- IC50 [2]: 41 µM

Compound: Cn1c(=O)[nH]c2nccc(Oc3ccc(NC(=O)Nc4ccc(Cl)c(C(F)(F)F)c4)cc3)c21
- clearance [11]: 0.283 mL/min
- Cmax [12]: 2450 nM
- IC50 [1]: 0.022 µM
- AUC [13]: 4.5 µM·h
- Cmax [14]: 1150 nM
- AUC [15]: 3.26 µM·h
- half-life [16]: 9.72 h
- IC50 [2]: 5.3 µM
- half-life [17]: 2.58 h
- CL [18]: 0.006 L/h
- metabolised at 10 µM [10]: 11%

Compound: O=C(Cc1cccc(OC(F)(F)F)c1)Nc1ccc(Oc2ccnc3[nH]c(=O)[nH]c23)cc1
- IC50 [2]: 23.9 µM

Compound: O=C(Nc1ccc(Oc2ccnc3[nH]c(=O)[nH]c23)cc1)Nc1ccccc1C(F)(F)F
- IC50 [1]: > 100 µM
- IC50 [2]: > 100 µM

Compound: Cn1c(=O)n(C)c2c(Oc3ccc(NC(=O)Nc4ccc(Cl)c(C(F)(F)F)c4)cc3)ccnc21
- IC50 [1]: 0.061 µM
- IC50 [2]: 4.8 µM

Compound: O=C(Nc1ccc(Oc2ccnc3[nH]c(=O)[nH]c23)cc1)Nc1cccc(F)c1
- IC50 [1]: 2.84 µM
- IC50 [2]: 13.9 µM

Compound: O=C(Cc1cccc(C(F)(F)F)c1)Nc1ccc(Oc2ccnc3[nH]c(=O)[nH]c23)cc1
- IC50 [2]: 5 µM

Compound: Cn1c(=O)[nH]c2nccc(Oc3ccc(NC(=O)Nc4cccc(C(C)(C)C)c4)cc3)c21
- IC50 [1]: 0.163 µM
- IC50 [2]: 2.82 µM
